Data: patent US12285395B2, “Pharmaceutical composition for preventing or treating allodynia caused by anticancer agents” (UNIVERSITY-INDUSTRY COOPERATION GROUP OF KYUNG HEE …, priority 2018, dated 2025)

Columns and labels:
[1] = tested on: oxaliplatin-induced cold allodynia; assay: Acetone drop test, oxaliplatin-induced cold allodynia, intraperitoneal administration; format: in vivo, Sprague Dawley (SD) rats
Procedure: Cinnamic acid (trans-cinnamic acid, Wako Pure Chemical Industries, Osaka, Japan) and cinnamaldehyde (Wako Pure Chemical Industries, Osaka, Japan) were dissolved in 10% dimethyl sulfoxide (DMSO, Sigma) (adjusted to pH 7 with 2 M HCl and 5 M NaOH) and 1% Tween 20 (Sigma), respectively. The final volume of 10% DMSO and 1% Tween 20 used in the experiment was […] rat. Cinnamic acid and cinnamaldehyde (10 mg/kg, 20 mg/kg, and 40 mg/kg) (i.p.) at different concentrations were administered to rats with cold allodynia and mechanical allodynia.
Seven-week-old male Sprague Dawley (SD) rats (180 g to 210 g, 95 rats total, Young Bio, Gyeonggi, Korea) were fed freely with feed and water in cages. The room temperature was maintained at 23±2° C. and a 12 h/12 h contrast cycle was maintained. All procedures described in the present disclosure were approved by the Animal Care and Use Committee of Kyunghee University (KHUASP[SE]-18-153) and followed the guidelines of the International Pain Research Association.
In order to measure cold allodynia and mechanical allodynia, according to a previous method (Flatters, S J; Bennett, G J Ethosuximide reverses paclitaxel- and vincristine-induced painful peripheral neuropathy. Pain 2004, 109, 150-161), an acetone drop test and a von Frey filament test (up-down method, Linton Instrumentation, Norfolk, UK) were performed, respectively. The rats were trained for one week before the start of the experiment to adapt to the touch and the experimental procedure. The rats were stabilized for 30 min before testing in a clear plastic box (20 cm×20 cm×14 cm) with a wire mesh bottom, while not recognizing the injection of oxaliplatin and other drugs.
Acetone was dripped 5 times on the right hind paw, and the total frequency of licking and shaking of the soles was measured as an average per time.
For the mechanical allodynia test, paw withdrawal thresholds were measured in the right hind paw using a von Frey filament. Dixon's up-down method and Chaplan's calculation method were used, and a withdrawal threshold of 15 g was measured as a cut-off. In order to confirm the effects of cinnamaldehyde and cinnamic acid at different concentrations over time, the behavioral experiment was performed before injection of cinnamic acid and cinnamaldehyde (time point of 0 min) and at time points of 30 min, 60 min, and 120 min after injection.
Oxaliplatin (Wako Pure Chemical Industries, Osaka, Japan) was dissolved in a 5% glucose solution at a concentration of 2 mg/mL and injected intraperitoneally at a dose of 6 mg/kg. The same volume of 5% glucose solution (i.p.) was administered to a control.
All data are expressed as mean±S.E.M. (Standard error of the mean). The data in FIG. 4 was analyzed by a paired t-test (FIGS. 4A and 4B) or an unpaired t-test (FIG. 4C). The data in FIGS. 5 and 6 were expressed as mean±S.E.M. and analyzed by a Bonferroni post-test after one-way ANOVA to evaluate a statistical difference between groups. The data in FIG. 7A were analyzed using Dunnett's multiple comparisons test after two-way ANOVA. The 95% reliability was considered to be statistically significant.

[2] = tested on: cold allodynia induced by oxaliplatin; assay: Cold allodynia (acetone application), oxaliplatin animal model, oral cinnamic acid; format: in vivo, c57/bl6 mice
Procedure: Six-week-old mice (c57/bl6 mice) were prepared as an experimental animal.
Oxaliplatin (Sigma-Aldrich) dissolved in a 5% glucose solution at a concentration of 2 mg/mL was singly administered intraperitoneally to the experimental animal in an amount of 6 mg/kg. Significant pain was observed from about 3 days after intraperitoneal administration.
The reaction that occurred by applying about 20 μL of acetone to the soles of both rear paws of the experimental animal was observed and recorded for about 15 s.
Behaviors that are criteria for recording are an avoidance reaction, a behavior of shaking the soles of the paw, and a behavior of licking the soles of the paw. The evaluation was repeated a total of three times, and the average of the number of recorded behaviors was confirmed.
Experimental animals induced with allodynia were selected through a pre-behavioral experiment, and the effects were confirmed at 2 h after oral administration of 10 mg/kg of cinnamic acid.

[3] = tested on: mechanical allodynia induced by paclitaxel; assay: Mechanical allodynia (von Frey filament 0.4 g), paclitaxel animal model, oral cinnamic acid; format: in vivo, c57/bl6 mice; conditions: mice
Procedure: Six-week-old mice (c57/bl6 mice) were prepared as an experimental animal. Paclitaxel (Sigma-Aldrich) dissolved at a concentration of 6 mg/mL in a 1:1 solution of Cremophor EL and ethanol was diluted to a concentration of 2 mg/mL and intraperitoneally injected 4 times at 2 mg/kg. The dosage was administered every other day on days 0, 2, 4, and 6. Significant pain was observed from about 10 days after the first dosage. The number of reactions was recorded by stimulating the soles of both hind paws of the experimental animal 10 times using a von Frey filament at a pressure of 0.4 g. The behaviors that are criteria for recording are an avoidance reaction and a behavior of licking the soles of the paw. The recording for both paws was averaged and confirmed. As a pre-behavioral experiment, 50 mg/kg and 100 mg/kg of cinnamic acid was orally administered to experimental animals induced with allodynia, and the effects after 1 h and 2 h were confirmed.

[4] = tested on: cold allodynia induced by vincristine; assay: Cold allodynia (acetone application), vincristine animal model, oral cinnamic acid; format: in vivo, c57/bl6 mice
Procedure: Six-week-old mice (c57/bl6 mice) were prepared as an experimental animal. Vincristine at a concentration of 1 mg/mL was injected intraperitoneally for 7 consecutive days at 0.1 mg/kg. Significant pain was observed from about 10 days after the first injection. The reaction that occurred by applying about 20 μL of acetone to the soles of both rear paws of the experimental animal was observed and recorded for about 15 s. Behaviors that are criteria for recording are an avoidance reaction, a behavior of shaking the soles of the paw, and a behavior of licking the soles of the paw. The evaluation was repeated a total of three times, and the average of the number of recorded behaviors was confirmed. Experimental animals induced with allodynia were selected through a pre-behavioral experiment and orally administered with 50 mg/kg and 100 mg/kg of cinnamic acid, and the effects after 1 h and 2 h were confirmed.

O=C(O)/C=C/c1ccccc1 [cinnamic acid]
time point at which the effect on cold allodynia disappeared ([1]; 10 mg/kg i.p. (FIG. 5A)): 120 min
pain relief effect on cold allodynia of 20 mg/kg relative to 40 mg/kg ([1]; 20 mg/kg i.p. vs 40 mg/kg i.p. (control vs. 20 mg/kg p<0.001, 40 mg/kg p<0.05) (FIG. 5A)): slightly stronger
effect on oxaliplatin-induced cold allodynia ([1]; all three doses 10, 20 and 40 mg/kg i.p., 30, 60, 120 min after injection (FIG. 5A, FIG. 6)): had effects on cold allodynia
optimal dose for alleviating cold allodynia and mechanical allodynia caused by oxaliplatin ([1]; intraperitoneal administration, doses tested 10, 20, 40 mg/kg): 20 mg/kg
time after administration up to which pain relief effect on cold allodynia was shown ([2]; low dose 10 mg/kg p.o.): up to 2 h
pain relief effect on cold allodynia compared to control (vehicle) ([2]; mice, 10 mg/kg oral, 2 h after administration (FIG. 1)): significant pain relief effect
pain relief effect on mechanical allodynia ([3]; 50 mg/kg oral (FIG. 2)): no significant pain relief effect
pain relief effect on mechanical allodynia compared to control ([3]; 100 mg/kg oral (FIG. 2)): no significant pain relief effect
time after administration up to which pain relief effect on cold allodynia was shown ([4]; high dose 100 mg/kg p.o.): up to 1 h
pain relief effect on cold allodynia ([4]; mice, 50 mg/kg oral (FIG. 3)): no significant pain relief effect
pain relief effect on cold allodynia compared to control ([4]; mice, 100 mg/kg oral, after 1 h (FIG. 3)): significant pain relief effect
